Experimental findings from PubChem BioAssay (NCI) are described below.

Each structure is given as a SMILES string.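 Cells were grown in 96-well plates and exposed to each compound for 48 hours at five concentrations; endpoints were interpolated linearly between bracketing concentrations, or set to the highest concentration if not reached. At the GI50, growth is halved. TGI: total growth inhibition.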

Test systems include MOLT-4 leukemia; BT-549 breast; HS 578T breast; OVCAR-8 ovarian; MCF7 breast; MDA-MB-231 breast; T-47D breast.
Assay in all cases: NCI anticancer screen, dose series, 48 h

As to `CCOC(=O)C(=Cc1cccc(Cl)c1)C(=O)OCC`, the GI50 is 3.08 µM with MOLT-4 leukemia; 2.06 µM with BT-549 breast; 4.29 µM with HS 578T breast; 3.37 µM with OVCAR-8 ovarian; 2.12 µM with MCF7 breast; 2.35 µM in the experiment on MDA-MB-231 breast. Besides, the GI50 with T-47D breast is 1.78 µM. For the same molecule, the TGI was 9.81 µM in the experiment with MOLT-4 leukemia; 5.07 µM in the experiment with BT-549 breast; 29.8 µM in the experiment with HS 578T breast; 12.8 µM in the experiment on OVCAR-8 ovarian; 8.11 µM in the experiment on MCF7 breast; 5.04 µM in the experiment with MDA-MB-231 breast. Also, in the experiment with T-47D breast, the TGI came out at 4.26 µM.

Consider `COc1ccc2[nH]cc(-c3nc(-c4c[nH]c5ncccc45)cs3)c2c1`, for which the GI50 with MOLT-4 leukemia was 3.13 µM; in the experiment with BT-549 breast, 5.35 µM; with HS 578T breast, 4.17 µM; in the experiment on OVCAR-8 ovarian, 4.7 µM; in the experiment with MCF7 breast, 3.33 µM; in the experiment on MDA-MB-231 breast, 2.21 µM. Besides, the GI50 in the experiment on T-47D breast is 6.47 µM. The TGI with MOLT-4 leukemia, in the experiment with BT-549 breast, in the experiment with HS 578T breast, in the experiment on OVCAR-8 ovarian, with MCF7 breast and in the experiment with MDA-MB-231 breast was above 100 µM each time. In the experiment with T-47D breast, this molecule yielded a TGI above 100 µM.

`Cc1csc(Nc2nc(-c3cccc(Br)c3)nc(C(Cl)(Cl)Cl)n2)n1`: the GI50 in the experiment with MOLT-4 leukemia is above 40.9 µM; in the experiment on BT-549 breast it was above 100 µM; with HS 578T breast, 2.94 µM; with OVCAR-8 ovarian, above 29.2 µM; in the experiment with MCF7 breast, 1.43 µM; in the experiment with MDA-MB-231 breast it was 2.78 µM. Besides, the GI50 in the experiment with T-47D breast is 1.38 µM. The TGI with MOLT-4 leukemia, in the experiment with BT-549 breast, in the experiment with HS 578T breast, in the experiment on OVCAR-8 ovarian, in the experiment with MCF7 breast and with MDA-MB-231 breast was above 100 µM in each case. In the experiment with T-47D breast, this molecule returned a TGI above 26.8 µM.

With `Cc1[nH]c2ccccc2c1-c1cc(-c2cc(-c3c(C)[nH]c4ccccc34)on2)no1`, the TGI with MOLT-4 leukemia was above 100 µM; in the experiment on BT-549 breast it was above 100 µM; with HS 578T breast, 90.6 µM; in the experiment with OVCAR-8 ovarian it was above 100 µM; with MCF7 breast it was above 100 µM; in the experiment with MDA-MB-231 breast, above 100 µM. In the experiment on T-47D breast, this molecule had a TGI above 100 µM.

For `C=CCc1cccc(/C=N/NC(=O)CN2CCN(Cc3ccccc3)CC2)c1O`, the GI50 in the experiment with MOLT-4 leukemia is 1.12 µM; in the experiment with BT-549 breast, 2.84 µM; in the experiment on HS 578T breast it was 5.63 µM; in the experiment with OVCAR-8 ovarian, 2.08 µM; in the experiment with MCF7 breast, 2.52 µM; with MDA-MB-231 breast, 2.49 µM. Moreover, in the experiment on T-47D breast, the GI50 was 2.32 µM. Besides, the TGI in the experiment on MOLT-4 leukemia is 5.64 µM; in the experiment with BT-549 breast it was 15.3 µM; in the experiment with HS 578T breast it was 23.1 µM; in the experiment on OVCAR-8 ovarian it was 17.6 µM; in the experiment on MCF7 breast, 12.5 µM; in the experiment on MDA-MB-231 breast, 15.5 µM. Moreover, the TGI in the experiment on T-47D breast stood at 14.9 µM.

For `CCN(CC)c1nc(-c2ccc(Cl)cc2Cl)nc2ccccc12`, the GI50 with MOLT-4 leukemia is 42.9 µM; with BT-549 breast it was 25.4 µM; in the experiment with HS 578T breast it was 8.82 µM; in the experiment with OVCAR-8 ovarian, 31.9 µM; in the experiment with MCF7 breast, 22.2 µM; in the experiment on MDA-MB-231 breast, 4.2 µM. Moreover, the GI50 in the experiment on T-47D breast is 18.1 µM. The TGI in the experiment with MOLT-4 leukemia is above 100 µM; in the experiment on BT-549 breast, 54.1 µM; in the experiment with HS 578T breast, 35.1 µM; in the experiment on OVCAR-8 ovarian it was above 100 µM; in the experiment on MCF7 breast, above 68 µM; in the experiment with MDA-MB-231 breast, 23.2 µM. This molecule gave a TGI in the experiment on T-47D breast of 49.6 µM.

For the molecule `O=c1[nH]c(=O)n(C2CC(O)C(CO)O2)cc1CO` (stereo not given), the GI50 in the experiment with MOLT-4 leukemia, with BT-549 breast, in the experiment on HS 578T breast, in the experiment on OVCAR-8 ovarian and in the experiment with MCF7 breast was above 100 µM in each case. Moreover, the TGI in the experiment with MOLT-4 leukemia, in the experiment on BT-549 breast, with HS 578T breast, in the experiment with OVCAR-8 ovarian and in the experiment with MCF7 breast was above 100 µM throughout.

As for `COc1cc(-c2nn(-c3cccc(NC(=O)Nc4ccc(Cl)c(Cl)c4)c3)cc2-c2ccncc2)ccc1Cl`, the GI50 in the experiment with MOLT-4 leukemia is 1.1 µM; in the experiment on BT-549 breast, 1.68 µM; in the experiment on HS 578T breast, 1.43 µM; in the experiment with OVCAR-8 ovarian it was 0.931 µM; with MCF7 breast, 0.945 µM; in the experiment on MDA-MB-231 breast it was 0.698 µM. In the experiment with T-47D breast, the GI50 is 1.42 µM. Further, the TGI in the experiment on MOLT-4 leukemia is 4.48 µM; in the experiment on BT-549 breast it was 27.6 µM; in the experiment on HS 578T breast, above 50 µM; with OVCAR-8 ovarian, 3.61 µM; in the experiment on MCF7 breast it was above 50 µM; in the experiment on MDA-MB-231 breast, 1.92 µM. The molecule further showed a TGI in the experiment with T-47D breast above 50 µM.

`CC(C)=CCc1cc(O)cc2c1OC(C=C(C)C)C1=C2C(=O)C2=C(NCCS2(=O)=O)C1=O` (stereo not given): the GI50 in the experiment on MOLT-4 leukemia was 2.23 µM; in the experiment on BT-549 breast it was 2.87 µM; in the experiment with HS 578T breast, 3.48 µM; in the experiment on OVCAR-8 ovarian, 3.24 µM; with MCF7 breast, 1.21 µM; in the experiment on MDA-MB-231 breast, 0.527 µM. Moreover, in the experiment on T-47D breast, the GI50 was 3.32 µM. Also, the TGI in the experiment with MOLT-4 leukemia was determined as 7.19 µM; with BT-549 breast it was 5.23 µM; in the experiment with HS 578T breast, 11.9 µM; in the experiment on OVCAR-8 ovarian it was 8.71 µM; in the experiment with MCF7 breast, 4.92 µM; with MDA-MB-231 breast it was 5.09 µM. This molecule registered a TGI with T-47D breast of 14.1 µM.

As to `CCCn1c(N)c(C(=O)N/N=C(/C)c2cc3cccc(OC)c3o2)sc1=S`, the GI50 in the experiment on MOLT-4 leukemia was 24.2 µM; in the experiment with BT-549 breast, 77.5 µM; in the experiment with HS 578T breast, 17.7 µM; with OVCAR-8 ovarian it was 13.8 µM; in the experiment on MCF7 breast, 28 µM; in the experiment on MDA-MB-231 breast, above 100 µM. Further, in the experiment with T-47D breast, the GI50 is above 100 µM. Further, the TGI in the experiment with MOLT-4 leukemia was above 100 µM; in the experiment on BT-549 breast, above 100 µM; in the experiment on HS 578T breast, 69.9 µM; with OVCAR-8 ovarian, above 100 µM; in the experiment on MCF7 breast it was above 100 µM; with MDA-MB-231 breast, above 100 µM. Further, the TGI in the experiment with T-47D breast is above 100 µM.

Take `CC(=O)OC12c3ccccc3-c3ccccc3C1C1C(=O)N(C)C(=O)C12Cl` (stereo not given): the TGI in the experiment with MOLT-4 leukemia, with HS 578T breast, in the experiment with OVCAR-8 ovarian, in the experiment on MCF7 breast, in the experiment on MDA-MB-231 breast and with T-47D breast was above 10 µM each time.
